Measurements reported in patent US20260297105A1, “RAF-MEK PROTEIN COMPLEX MODULATORS AND METHODS OF USE THEREOF” (GANDEEVA THERAPEUTICS, INC., priority 2023, published 2026).

How the values were obtained:
p-ERK1/2 in HCT116 cells = experiment: AlphaLISA p-ERK assay, cellular inhibition of ERK phosphorylation in HCT116 cells; type: cell-based; settings: Homo sapiens, HCT-116, 2 hours treatment, PMA stimulation 30 mins
Protocol: (§1) Cell culture: HCTI 16, HT-29, and NCI-H292 cells were acquired from American Type Culture Collection (ATCC). HCT116 and HT-29 cells were maintained in ATCC-formulated McCoy's 5a Medium Modified supplemented with 10% fetal bovine serum, NCI-H292 cells were cultured in ATCC formulated RPMI-1640 supplemented with 10% fetal bovine serum. All cells were maintained at 37° C., 5% CO2.
Efficacy of exemplary compounds in cellular inhibition of ERK phosphorylation: Phosphorylation status of ERK1/2 (p-ERK) was used as a readout for inhibition of BRAF-MEK pathway. p-ERK was detected using an immunoassay for quantitative detection of phospho-ERK 1/2 (phosphorylated on Thr202/Tyr204 in ERK1, or Thr185/Tyr187 in ERK2), such as the AlphaLISA® SureFire® Ultra™ p-ERK1/2 (Thr202/Tyr204) kit (Perkin Elmer). HCT116 cells were plated at 10,000 cells per well in 384-well TC-treated plates (Coming). Cells were plated for 24 hours, the medium was then aspirated and cells were treated with vehicle (DMSO) or test compounds (0.1% DMSO in final volume) prepared in serum free, phenol red free medium for 2 hours. Following treatment, cells were stimulated with PMA (1.25 μM/well) for 30 mins after which the medium was aspirated, and the cells were lysed for 10 mins with 1× lysis buffer supplemented with Halt Protease and Phosphatase Inhibitor Cocktail (Thermo Fisher). The lysate was transferred to a 384 well Alpha-plate (PerkinElmer) and incubated for 1 hour with acceptor bead mix followed by 1 hour incubation with donor bead mix. After incubation, the plate was read on a Cytation5 microplate reader (Agilent). % inhibition as a function of compound concentration from 3 replicate wells was fit with a 4-parameter logistic curve using GraphPad Prism or CDD Vault to derive IC50 values.
(§2) In this table, for the BRAF ADP Glo kinase assay, “A” indicates IC50 of less than 5 nM; “B” indicates IC50 of between 5 nM to 50 nM; and “C” indicates IC50 of between 50 nM to 500 nM. “D” indicates IC50 of greater than 500 nM. For the BRAF-MEK TR-FRET assay, “A” indicates EC50 of less than 50 nM; “B” indicates EC50 of between 50 nM to 200 nM; and “C” indicates EC50 of between 200 nM to 1 μM. “D′” indicates EC50 of greater than 1 μM. For the AlphaLisa P-ERK assay, “A” indicates IC50 of less than 1 nM; “B” indicates IC50 of between 1 nM to 10 nM; and “C” indicates IC50 of between 10 nM to 100 nM. “D” indicates IC50 of greater than 100 nM. For the cell viability assay, “A” indicates IC50 of less than 1 nM; “B” indicates IC50 of between 1 nM to 10 nM; and “C” indicates IC50 of between 10 nM to 100 nM. “D” indicates IC50 of greater than 100 nM.

MEK1 = biological target: T1, MEK1 (Homo sapiens, UniProt Q02750); experiment: MEK1 kinase cascade assay (ADP-Glo), inhibition of MEK1 kinase activity; type: biochemical; settings: 25 nM BRAF, 6.25 nM MEK1, 0.5 μM ERK, 1 mM ATP; 20 min preincubation, 1 hr at 25° C.; read-out: BRAF ADP Glo kinase assay V3 (IC50)
T1 construct: purchased SignalChem M02-14H
How it was run: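 Compounds were preincubated 20 mins at 25° C with 25 nM BRAF(445-723) in 10 mM HEPES pH 7.5, 5 mM MgCl2, 2 mM CHAPS, 1 mM DTT, then 6.25 nM MEK1, 0.5 μM ERK1 and 1 mM ATP were added for 1 hr at 25° C, with 1% DMSO. ADP-Glo luminescence was normalized to DMSO and 1 μM Trametinib; IC50 came from 4-parameter fits of duplicates.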

BRAF-MEK1 = experiment: BRAF-MEK TR-FRET assay, stabilization of MEK1 and BRAF interaction; type: binding; settings: 4 nM BRAF, 10 nM MEK, 100 μM ATP; 1 hr at 25° C.; read-out: BRAF-MEK TR-FRET Assay (EC50, fold stabilization)
How it was run: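 His-MEK1 (full-length, E. coli) at 10 nM with GST-BRAF at 4 nM, 1 h at 25° C in pH 7.5 Tris buffer with 5 mM MgCl2 and 100 μM ATP; anti-His-Tb/anti-GST-XL665 added for 1 h more. 665/620 FRET ratio over DMSO gives fold stabilization; EC50 from 4-parameter fit, duplicate wells.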

NCI-H292 cells = experiment: Cell viability assay (CellTiter-Glo), NCI-H292; type: cell-based; settings: Homo sapiens, 72 hrs, read-out: Cell Viability Assay: IC50 Determination NCI-H292
Protocol: as §1
Efficacy of exemplary compounds in inhibition of cell viability: HCT116 and HT-29 cells were plated at 4,000 cells per well and NCI-H292 cells were plated at 2,000 cells per well in their respective media in 384-well white, TC-treated plates (Corning). After 24 hours of incubation, the cells were treated with vehicle (DMSO) or test compounds (0.1% DMSO in final volume) for 72 hrs. The plate was equilibrated at room temperature for 10 mins followed by addition of a 1:1 volume of CellTiter-Glo® reagent (Promega). The contents were mixed for 2 mins on an orbital shaker to induce lysis. The plate was incubated at room temperature for 10 mins to stabilize luminescent signal before measuring luminescence on a Cytation5 microplate reader (Agilent). % inhibition as a function of compound concentration from 3 replicate wells was fit with a 4-parameter logistic curve using GraphPad Prism or CDD Vault to derive IC50 values.
as §2

T1 sequence (Q02750 whole entry): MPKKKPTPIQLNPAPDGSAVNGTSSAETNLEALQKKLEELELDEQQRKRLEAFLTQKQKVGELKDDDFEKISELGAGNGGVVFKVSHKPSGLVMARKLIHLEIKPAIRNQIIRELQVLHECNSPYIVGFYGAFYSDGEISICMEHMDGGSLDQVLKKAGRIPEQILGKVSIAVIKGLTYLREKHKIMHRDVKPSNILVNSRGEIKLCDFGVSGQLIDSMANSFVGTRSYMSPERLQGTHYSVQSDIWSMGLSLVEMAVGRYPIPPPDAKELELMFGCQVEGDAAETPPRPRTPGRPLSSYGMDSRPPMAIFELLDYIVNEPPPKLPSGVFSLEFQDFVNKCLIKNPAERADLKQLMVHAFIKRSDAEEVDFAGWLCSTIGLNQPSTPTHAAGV
T1 sequence (P15056 445-723 partner limits assumed): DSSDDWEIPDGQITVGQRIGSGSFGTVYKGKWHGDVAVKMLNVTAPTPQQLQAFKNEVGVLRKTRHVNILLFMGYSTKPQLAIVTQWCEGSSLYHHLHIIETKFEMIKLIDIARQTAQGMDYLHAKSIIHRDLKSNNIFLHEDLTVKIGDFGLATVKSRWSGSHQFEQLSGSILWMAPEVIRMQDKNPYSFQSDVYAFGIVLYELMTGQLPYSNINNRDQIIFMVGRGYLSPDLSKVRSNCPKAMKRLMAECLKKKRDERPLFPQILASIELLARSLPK

Compound	IC50 (p-ERK1/2 in HCT116 cells) [nM]	IC50 (MEK1) [nM]	EC50 (BRAF-MEK1) [nM]	IC50 (NCI-H292 cells) [nM]
CNS(=O)(=O)Nc1nccc(CN2C(=O)Oc3cc(Oc4cccnn4)ccc3[C@@H]2C)c1F (single isomer, unassigned) [Compound 22]	10 to 100	5 to 50	50 to 200	–
CNS(=O)(=O)Nc1cccc(CN2C(=O)Oc3c(ccc(Oc4cccnn4)c3F)[C@@H]2C)c1F (single isomer, unassigned) [Compound 35]	10 to 100	< 5	50 to 200	10 to 100
CNS(=O)(=O)Nc1cccc(CN2C(=O)Oc3cc(Oc4cccnn4)cc(F)c3[C@H]2C)c1F (single isomer, unassigned) [Compound 57]	1 to 10	5 to 50	50 to 200	1 to 10
CNS(=O)(=O)Nc1cccc(CN2C(=O)Oc3cc(Oc4cccnn4)c(F)cc3[C@@H]2C)c1F (single isomer, unassigned) [Compound 66]	1 to 10	< 5	200 to 1000	1 to 10
CNS(=O)(=O)Nc1cccc(CN2C(=O)Oc3cc(Oc4cccnn4)c(F)cc3[C@H]2C)c1F (single isomer, unassigned) [Compound 67]	1 to 10	5 to 50	200 to 1000	1 to 10
CNS(=O)(=O)Nc1cccc(CN2C(=O)Oc3cc(Oc4cccnn4)ccc3[C@H]2C)c1F (single isomer, unassigned) [Compound 71]	10 to 100	5 to 50	200 to 1000	1 to 10
CNS(=O)(=O)Nc1cccc(CN2C(=O)Oc3cc(Oc4cccnn4)ccc3[C@@H]2C)c1F (single isomer, unassigned) [Compound 72, (R)-3-({2-fluoro-3-(methylsulfamoyl)amino]phenyl}methyl)-4-methyl-7-(pyridazin-3-yloxy)-3,4-dihydro-2H-1,3-benzoxazin-2-one or (S)-3-({2-fluoro-3-(methylsulfamoyl)amino]phenyl}methyl)-4-methyl-7-(pyridazin-3-yloxy)-3,4-dihydro-2H-1,3-benzoxazin-2-one]	1 to 10	5 to 50	50 to 200	1 to 10
CNS(=O)(=O)Nc1nccc(CN2C(=O)Oc3cc(Oc4cccnn4)c(F)cc3C23COC3)c1F [Compound 18, 6-fluoro-3-{[3-fluoro-2-(methylaminosulfonylamino)-4-pyridyl]methyl}-7-(3-pyridazinyloxy)-2H,3H-spiro[1,3-benzoxazine-4,3′-oxetan]-2-one]	10 to 100	5 to 50	< 50	–
CNS(=O)(=O)Nc1cccc(CN2C(=O)Oc3cc(Oc4cccnn4)c(F)cc3C23CCC3)c1F [Compound 19, 6-fluoro-3-{1[2-fluoro-3-(methylaminosulfonylamino)phenyl]methyl}-7-(3-pyridazinyloxy)-2H,3H-spiro[1,3-benzoxazine-4,1′-cyclobutan]-2-one]	< 1	5 to 50	< 50	–
CNS(=O)(=O)Nc1nccc(CN2C(=O)Oc3cc(Oc4cccnn4)ccc3C23CCC3)c1F [Compound 20, 3-{[3-fluoro-2-(methylaminosulfonylamino)-4-pyridyl]methyl}-7-(3-pyridazinyloxy)-2H,3H-spiro[1,3-benzoxazine-4,1′-cyclobutan]-2-one]	1 to 10	< 5	< 50	–
CN(C)C(=O)Oc1ccc2c(c1)OC(=O)N(Cc1cccc(CN3CCOC3=O)c1F)C2 [Compound 21, 3-(2-fluoro-3-((2-oxooxazolidin-3-yl)methyl)benzyl)-2-oxo-3,4-dihydro-2H-benzo[e][1,3]oxazin-7-yl dimethylcarbamate]	1 to 10	5 to 50	200 to 1000	–
O=C1Oc2cc(Oc3cccnn3)ccc2C2(COC2)N1Cc1cccc(NS(=O)(=O)C2CC2)c1F [Compound 59, N-(2-fluoro-3-{[2-oxo-7-(pyridazin-3-yloxy)-2,3-dihydrospiro[1,3-benzoxazine-4,3′-oxetan]-3-yl]methyl}phenyl)cyclopropanesulfonamide]	1 to 10	5 to 50	–	1 to 10
O=C1Oc2cc(Oc3ccccn3)ccc2CN1Cc1cccc(NS(=O)(=O)C2CC2)c1F [Compound 62, N-(2-fluoro-3-((2-oxo-7-(pyridin-2-yloxy)-2H-benzo[e][1,3]oxazin-3(4H)-yl)methyl)phenyl)cyclopropanesulfonamide]	> 100	5 to 50	–	> 100
CNS(=O)(=O)Nc1cccc(CN2Cc3ccc(Oc4ccccn4)cc3OC2=O)c1F [Compound 65, 3-({2-fluoro-3-[(methylsulfamoyl)amino]phenyl}methyl)-7-(pyridin-2-yloxy)-3,4-dihydro-2H-1,3-benzoxazin-2-one]	10 to 100	< 5	–	10 to 100
CNS(=O)(=O)Nc1cccc(CN2Cc3ccc(C(F)(F)C(=O)N(C)C)cc3OC2=O)c1F [Compound 133]	10 to 100	5 to 50	–	10 to 100
CNS(=O)(=O)Nc1cccc(CN2Cc3cc(Cl)c(Oc4ncccn4)cc3OC2=O)c1F [Compound 148, 6-chloro-3-({2-fluoro-3-[(methylsulfamoyl)amino]phenyl}methyl)-7-(pyrimidin-2-yloxy)-3,4-dihydro-2H-1,3-benzoxazin-2-one]	10 to 100	5 to 50	–	10 to 100
O=C1Oc2cc(Oc3nccnn3)ccc2C2(CCC2)N1Cc1ccnc(NS(=O)(=O)C2CC2)c1F [Compound 161, (cyclopropylsulfonyl)[3-fluoro-4-({2-oxo-7-(1,2,4-triazin-3-yloxy)-2H,3H-spiro[1,3-benzoxazine-4,1′-cyclobutan]-3-yl}methyl)-2-pyridyl]amine]	10 to 100	–	50 to 200	1 to 10
CNS(=O)(=O)Nc1nccc(CN2Cc3ccc(Oc4ncco4)cc3OC2=O)c1F [Compound 162, 3-{[3-fluoro-2-(methylaminosulfonylamino)-4-pyridyl]methyl}-7-(1,3-oxazol-2-yloxy)-3,4-dihydro-2H-1,3-benzoxazin-2-one]	10 to 100	–	50 to 200	1 to 10
O=C1Oc2cc(Oc3ncco3)c(F)cc2C2(CCC2)N1Cc1ccnc(NS(=O)(=O)C2CC2)c1F [Compound 170, (cyclopropylsulfonyl)[3-fluoro-4-({6-fluoro-7-(1,3-oxazol-2-yloxy)-2-oxo-2H,3H-spiro[1,3-benzoxazine-4,1′-cyclobutan]-3-yl}methyl)-2-pyridyl]amine]	–	5 to 50	200 to 1000	10 to 100
